The record followed here is patent publication US20240316059A1, “PEPTIDE DRUG CONJUGATES” (Oncopeptides AB, priority 2021, published 2024).

This assay deals with MM.1S cells. Kind of assay: In vitro cytotoxic potency in MM.1S cell viability assay (CellTiter-Glo). It is filed as cell-based, human. To be noted: 72 h, read-out: MM.1S IC50. The procedure:
Methods: MM.1S Cells were cultivated in RPMI medium 1640 (IX) supplemented with 10 μg/μL penicillin/streptomycin, 10% heat inactivated FBS, 0.1 mM Sodium Pyruvate, 1×MEM NEAA (ThermoFisher) and 1 mM HEPES. Cells were grown to reach log phase before being exposed to the test compounds.
Test compounds (Example compounds 1 to 36, 38 to 41 and 45 to 48) and comparative compounds (bendamustine, busulfan, melphalan, chlorambucil and 4-hydroperoxy cyclophosphamide) were dissolved in 100% DMSO and added to a 384 assay plate. Additional DMSO was added to maintain the same final DMSO concentration (0.2%) in all wells. 25 μL cell suspension with a concentration of 100000 cells/mL was added to each well. The cells were cultured in a CO2 incubator at 37° C. for 72 h. Plates were equilibrated to room temperature for 30 minutes before adding 20 μL CellTiter-Glo® 2.0 (Promega) reagent to all wells. The plate was then allowed to stabilize for 20 minutes before recording the luminescence (emission filter 700 nm) in an Envision plate reader.
All cells were cultivated in RPMI medium 1640 (IX). All media was supplemented with 10 μg/μl penicillin/streptomycin, 10% heat inactivated FBS, 0.1 mM Sodium Pyruvate, 1×MEM NEAA (ThermoFisher) and 1 mM HEPES. The DERL-2 cells had higher FBS (20%) and 40 ng/mL IL-2 was added. hPBMCs were thawed and allowed to acclimatise overnight and then stimulated with 10 μg/mL PHA-M and 40 ng/mL IL-2 for 4 hours before being exposed to test compounds. All cells, except for hPBMCs, were grown to reach log phase before being exposed to the test compounds.
Test compounds were dissolved in 100% DMSO and added to a 384 assay plate. Additional DMSO was added to maintain the same final DMSO concentration (0.2%) in all wells. 25 μL cell suspension with a concentration of 100000 cells/mL was added to each well. The cells were cultured in a CO2 incubator at 37° C. for 72 h. Plates were equilibrated to room temperature for 30 minutes before adding 20 μL CellTiter-Glo® 2.0 (Promega) reagent to all wells. The plate was then allowed to stabilize for 20 minutes before recording the luminescence (Em filter 700 nm) in an Envision plate reader.
Background: In ATP-based viability assays light output follows the ATP content of the culture.

Read-outs that look alike come from different tables or passages of the source.

Broadly, the IC50 is the concentration that inhibits the measured activity by half. `O=P1(N(CCCl)CCCl)NC(OO)CCO1` (stereo not shown) [4-hydroperoxy cyclophosphamide, reference compound]: for the setting “CellTiter-Glo 2.0”, the IC50 was found to be 7300 nM.
For `CS(=O)(=O)OCCCCOS(C)(=O)=O` [Busulfan, busulfan, reference compound], the IC50 (Homo sapiens, MM1.S, CellTiter-Glo 2.0) turned out to be 180000 nM.
As for `O=C(O)CCCc1ccc(N(CCCl)CCCl)cc1` [Chlorambucil, chlorambucil, reference compound], the IC50 (Homo sapiens, MM1.S) was found to be 6870 nM.
Turning to `CCOC(=O)[C@@H](NC(=O)[C@@H](N)CCc1nc2cc(N(CCCl)CCCl)ccc2n1C)C(C)C` [Example 3, Ethyl (2S)-2-[[(2S)-2-amino-4-[5-[bis(2-chloroethyl)amino]-1-methyl-benzimidazol-2-yl]butanoyl]amino]-3-methyl-butanoate], where the note is “Homo sapiens, MM1.S”, the IC50 stood at 6.8 nM.
Still for that read-out and setting: for `CCOC(=O)[C@H](CC(C)C)NC(=O)[C@@H](N)Cc1nc2cc(N(CCCl)CCCl)ccc2n1C` [Example 4, Ethyl (2S)-2-[[(2S)-2-amino-3-[5-[bis(2-chloroethyl)amino]-1-methyl-benzimidazol-2-yl]propanoyl]amino]-4-methyl-pentanoate] the value was 6.6 nM; for `CCOC(=O)[C@H](Cc1ccc(F)cc1)NC(=O)[C@@H](N)Cc1nc2cc(N(CCCl)CCCl)ccc2n1C` [Example 5, Ethyl (2S)-2-[[(2S)-2-amino-3-[5-[bis(2-chloroethyl)amino]-1-methyl-benzimidazol-2-yl]propanoyl]amino]-3-(4-fluorophenyl)propanoate], 22.6 nM.
Still for that read-out and setting: as for `CCOC(=O)[C@@H](NC(=O)[C@@H](N)Cc1nc2cc(N(CCCl)CCCl)ccc2n1C)C(C)C` [Example 6, Ethyl (2S)-2-[[(2S)-2-amino-3-[5-[bis(2-chloroethyl)amino]-1-methyl-benzimidazol-2-yl]propanoyl]amino]-3-methyl-butanoate], the figure is 98.7 nM.
On to `CCOC(=O)[C@H](CCc1nc2cc(N(CCCl)CCCl)ccc2n1C)NC(=O)[C@@H](N)CC(C)C` [Example 7, Ethyl (2S)-2-[[(2S)-2-amino-4-methyl-pentanoyl]amino]-4-[5-[bis(2-chloroethyl)amino]-1-methyl-benzimidazol-2-yl]butanoate], for which the IC50 (Homo sapiens, MM1.S) stood at 22.9 nM.
The same measure, in the same setting: for `CCOC(=O)[C@H](CCc1nc2cc(N(CCCl)CCCl)ccc2n1C)NC(=O)[C@@H](N)Cc1ccc(F)cc1` [Example 8, Ethyl (2S)-2-[[(2S)-2-amino-3-(4-fluorophenyl)propanoyl]amino]-4-[5-[bis(2-chloroethyl)amino]-1-methyl-benzimidazol-2-yl]butanoate] the value was 14.4 nM; for `CCOC(=O)[C@H](CCc1nc2cc(N(CCCl)CCCl)ccc2n1C)NC(=O)[C@@H](N)C(C)C` [Example 9, Ethyl (2S)-2-[[(2S)-2-amino-3-methyl-butanoyl]amino]-4-[5-[bis(2-chloroethyl)amino]-1-methyl-benzimidazol-2-yl]butanoate], 22.5 nM.
Take `CCOC(=O)[C@H](Cc1nc2cc(N(CCCl)CCCl)ccc2n1C)NC(=O)[C@@H](N)Cc1ccc(F)cc1` [Example 11, Ethyl (2S)-2-[[(2S)-2-amino-3-(4-fluorophenyl)propanoyl]amino]-3-[5-[bis(2-chloroethyl)amino]-1-methyl-benzimidazol-2-yl]propanoate]: for the setting “Homo sapiens, MM1.S”, the IC50 is 14.7 nM.
The same measure, in the same setting: as for `CCOC(=O)[C@H](Cc1nc2cc(N(CCCl)CCCl)ccc2n1C)NC(=O)[C@@H](N)C(C)C` [Example 12, Ethyl (2S)-2-[[(2S)-2-amino-3-methyl-butanoyl]amino]-3-[5-[bis(2-chloroethyl)amino]-1-methyl-benzimidazol-2-yl]propanoate], the figure is 12.5 nM.
The same measure, in the same setting: as for `COC(=O)[C@H](CC(C)C)NC(=O)[C@@H](N)Cc1nc2cc(N(CCCl)CCCl)ccc2n1C` [Example 14, Methyl (2S)-2-[[(2S)-2-amino-3-[5-[bis(2-chloroethyl)amino]-1-methyl-benzimidazol-2-yl]propanoyl]amino]-4-methyl-pentanoate], the figure is 8.7 nM; as for `CC(C)C[C@H](NC(=O)[C@@H](N)Cc1nc2cc(N(CCCl)CCCl)ccc2n1C)C(=O)OC(C)C` [Example 15, Isopropyl (2S)-2-[[(2S)-2-amino-3-[5-[bis(2-chloroethyl)amino]-1-methyl-benzimidazol-2-yl]propanoyl]amino]-4-methyl-pentanoate], 9.1 nM.
As to `CCOC(=O)[C@H](CCc1nc2cc(N(CCCl)CCCl)ccc2n1C)NC(=O)[C@H](CC(C)C)NC(=O)[C@@H](N)Cc1ccc(F)cc1` [Example 16, Ethyl (2S)-2-[[(2S)-2-[[(2S)-2-amino-3-(4-fluorophenyl)propanoyl]amino]-4-methyl-pentanoyl]amino]-4-[5-[bis(2-chloroethyl)amino]-1-methyl-benzimidazol-2-yl]butanoate], the IC50 (Homo sapiens, MM1.S) amounted to 25 nM.
Consider `Cn1c(C[C@H](N)C(=O)O)nc2cc(N(CCCl)CCCl)ccc21` [Example 17, (2S)-2-amino-3-[5-[bis(2-chloroethyl)amino]-1-methyl-benzimidazol-2-yl]propanoic acid], for which, under “Homo sapiens, MM1.S”, the IC50 was 40000 nM.
As for `CC(C)[C@H](NC(=O)[C@@H](N)CCc1nc2cc(N(CCCl)CCCl)ccc2n1C)C(=O)O` [Example 19, (2S)-2-[[(2S)-2-amino-4-[5-[bis(2-chloroethyl)amino]-1-methyl-benzimidazol-2-yl]butanoyl]amino]-3-methyl-butanoic acid], the IC50 (Homo sapiens, MM1.S) was determined as 4020 nM.
On the same count and under the same terms, for `CCOC(=O)[C@H](CCc1nc2cc(N(CCCl)CCCl)ccc2n1C)NC(=O)[C@@H](CC(C)C)NC(=O)[C@@H](N)Cc1ccc(F)cc1` [Example 21, Ethyl (2S)-2-[[(2R)-2-[[(2S)-2-amino-3-(4-fluorophenyl)propanoyl]amino]-4-methyl-pentanoyl]amino]-4-[5-[bis(2-chloroethyl)amino]-1-methyl-benzimidazol-2-yl]butanoate] the value was 26.6 nM; for `CCOC(=O)[C@H](Cc1ccc(F)cc1)NC(=O)[C@H](CC(C)C)NC(=O)[C@@H](N)CCc1nc2cc(N(CCCl)CCCl)ccc2n1C` [Example 22, Ethyl (2S)-2-[[(2S)-2-[[(2S)-2-amino-4-[5-[bis(2-chloroethyl)amino]-1-methyl-benzimidazol-2-yl]butanoyl]amino]-4-methyl-pentanoyl]amino]-3-(4-fluorophenyl)propanoate], 31.3 nM; for `CCOC(=O)[C@H](CC(C)C)NC(=O)[C@H](CC(C)C)NC(=O)[C@@H](N)CCc1nc2cc(N(CCCl)CCCl)ccc2n1C` [Example 23, Ethyl (2S)-2-[[(2S)-2-[[(2S)-2-amino-4-[5-[bis(2-chloroethyl)amino]-1-methyl-benzimidazol-2-yl]butanoyl]amino]-4-methyl-pentanoyl]amino]-4-methyl-pentanoate], 41.8 nM.
The same measure, in the same setting: for `CC(C)C[C@H](NC(=O)[C@@H](N)CCc1nc2cc(N(CCCl)CCCl)ccc2n1C)C(=O)OCCN1CCOCC1` [Example 24, 2-Morpholinoethyl (2S)-2-[[(2S)-2-amino-4-[5-[bis(2-chloroethyl)amino]-1-methyl-benzimidazol-2-yl]butanoyl]amino]-4-methyl-pentanoate] the value was 156 nM; for `CC(C)C[C@H](NC(=O)[C@@H](N)CCc1nc2cc(N(CCCl)CCCl)ccc2n1C)C(=O)OCCOC(C)C` [Example 25, 2-Isopropoxyethyl (2S)-2-[[(2S)-2-amino-4-[5-[bis(2-chloroethyl)amino]-1-methyl-benzimidazol-2-yl]butanoyl]amino]-4-methyl-pentanoate], 18.5 nM.
